Results as given in patent US5036062A, “Novel esters” (Pharmacia AB, priority 1988, dated 1991).
Counter-ions that a name gives are not always drawn.

Tests used:
[1] = Oral bioavailability of estramustine in dogs (AUC of estramustine after oral dosing); format: in vivo, Beagle dogs; conditions: oral water solution, dose equivalent to 140 mg estramustine phosphate, fasting; for AUC of estramustine, Mean ± S.D.: four Beagle dogs
Procedure: Different formulations were administered orally to groups of four Beagle dogs. The dose was equivalent to 140 mg of estramustine phosphate. The animals were fasting before dosing and given 50 ml 0.01 M hydrochloric acid after the dose. Blood samples were analysed for estramustine by means of gas chromatography. (Andersson, S-B, et al., Acta Pharm.Suec. 19, 1 (1982).
The following formulations were used: […]
1. Water solution of estramustine phosphate disodium salt
2. Water solution of compound No. 6:2
3. Water solution of compound No. 4:2

[2] = Interactions with calcium ions (observation of precipitate in acetate buffer pH=4.5 after adding equimolar calcium ions); format: physicochemical; conditions: for Observation: pH=4.5 buffer, observed for 3 h
Procedure: Solution A: 0.3 mole/l calcium diethanesulfonate. Calcium carbonate ([…], 15 mmole) is dissolved by adding a 1.0 mole/l ethanesulfonic acid solution until a stable pH=5.3 is obtained. The solution is diluted with water to 50 ml.
Solution B: 0.03 mole/l calcium diethanesulfonate. One part of solution A is diluted with 9 parts of water.
Solution C: 0.05 mole/l sodium acetate/acetic acid buffer with pH=4.5. Glacial acetic acid (3.0 g, 0.05 mole) is dissolved in 800 ml of water, titrated with 1 mole/l sodium hydroxide solution to pH=4.5 and diluted to 1 l.
The test compound is dissolved in 50 ml of solution C. A clear solution is obtained in a few minutes. After 5 minutes an equimolar amount of calcium ions are added by adding 1 ml of solution A or B. The mixture is observed for 3 h.

| SMILES | AUC of estramustine ([1]; Dog No. 8729) | AUC of estramustine ([1]; Dog No. 8731) | AUC of estramustine ([1]; Dog No. 8735) | AUC of estramustine ([1]; Dog No. 8742) | AUC of estramustine, Mean ± S.D. [1] | AUC of estramustine ([1]; Dog No. 8727) | AUC of estramustine ([1]; Dog No. 8733) | Observation ([2]; 178 mg, 0.3 mmole compound, solution A, 0.3 mmole calcium ions) | AUC of estramustine, Mean ± S.D. ([1]; listed as Etramustine phosphate disodium salt) | Observation ([2]; 16 mg, 0.03 mmole compound, solution B, 0.03 mmole calcium ions) | precipitate in the presence of calcium ions (summary) ([2]; novel compounds at concentrations 10 times higher than those of estramustine phosphate disodium salt and calcium ions giving immediate undissolved calcium salt) |
| --- | --- | --- | --- | --- | --- | --- | --- | --- | --- | --- | --- |
| CNCC(=O)O[C@H]1CC[C@H]2[C@@H]3CCc4cc(OC(=O)N(CCCl)CCCl)ccc4[C@H]3CC[C@]12C [Compound No. 4:2, 17-Estramustine N-methylaminoacetate, ethanesulfonate] | 94.0 ng/mlxhours | 79.8 ng/mlxhours | 2.6 ng/mlxhours | 153.4 ng/mlxhours | 82.6 ± 62.0 ng/mlxhours | – | – | – | – | – | – |
| C[C@]12CC[C@@H]3c4ccc(OC(=O)N(CCCl)CCCl)cc4CC[C@H]3[C@@H]1CC[C@@H]2OC(=O)CN [Compound No. 6:2, 17-estramustine aminoacetate, methanesulfonate] | 140 ng/mlxhours | 45.8 ng/mlxhours | – | – | 118 ± 59 ng/mlxhours | 100 ng/mlxhours | 184.8 ng/mlxhours | Remains clear | – | – | – |
| C[C@]12CC[C@@H]3c4ccc(OC(=O)N(CCCl)CCCl)cc4CC[C@H]3[C@@H]1CC[C@@H]2OP(=O)(O)O [Estramustine phosphate disodium salt, 17-estramustine dihydrogen phosphate ester, reference compound] | 16.4 ng/mlxhours | 34.0 ng/mlxhours | – | – | – | 147 ng/mlxhours | 19.5 ng/mlxhours | – | 54.3 ± 62.4 ng/mlxhours | Becomes unclear | immediate formation of an undissolved estramustine phosphate calcium salt |
